In ChEMBL document CHEMBL2380200, “Enantioselective inhibition of microbial lipolytic enzymes by nonracemic monocyclic enolphosphonate analogues of cyclophostin” (J Med Chem, 2013):

Experiments:
[1] = tested on: Mycobacterium tuberculosis; test: Inhibition of Mycobacterium tuberculosis monoacylglycerol lipase Rv0183 at 20 molar excess compound concentration preincubated with enzyme measured after 30 mins by pH-stat technique relative to control
[2] = tested on: Mycobacterium tuberculosis; test: Inhibition of Mycobacterium tuberculosis triacylglycerol lipase LipY at 20 molar excess compound concentration preincubated with enzyme measured after 30 mins by pH-stat technique relative to control
[3] = target: T1, Cutinase 1 (Fusarium vanettenii) (UniProt P00590); test: Inhibition of Fusarium solani pisi cutinase preincubated with enzyme measured after 30 mins by pH-stat technique
T1 sequence (whole entry): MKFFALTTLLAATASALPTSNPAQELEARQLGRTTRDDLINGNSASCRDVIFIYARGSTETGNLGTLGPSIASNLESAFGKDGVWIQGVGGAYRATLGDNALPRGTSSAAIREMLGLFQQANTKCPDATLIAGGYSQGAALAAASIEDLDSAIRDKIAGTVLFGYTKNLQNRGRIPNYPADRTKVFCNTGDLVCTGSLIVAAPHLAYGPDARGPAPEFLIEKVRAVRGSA

[4] = tested on: Mycobacterium tuberculosis; test: Inhibition of Mycobacterium tuberculosis triacylglycerol lipase LipY preincubated with enzyme measured after 30 mins by pH-stat technique
[5] = target: T1, Cutinase 1 (Fusarium vanettenii); test: Inhibition of Fusarium solani pisi cutinase at 20 molar excess compound concentration preincubated with enzyme measured after 30 mins by pH-stat technique relative to control
[6] = tested on: Mycobacterium tuberculosis; test: Inhibition of Mycobacterium tuberculosis monoacylglycerol lipase Rv0183 preincubated with enzyme measured after 30 mins by pH-stat technique

For `CCCCCCCCCC[C@@H]1CC[P@](=O)(OC)OC(C)=C1C(=O)OC`, the inhibition [1] was 93.1%, the inhibition [2] was 49.6% and the XI50 [3] was 4.07 molar excess. It also gave an XI50 [4] of 15.4 molar excess, an inhibition [5] of 86.5% and an XI50 [6] of 1.24 molar excess.

`CCCCCCCCCC[C@H]1CC[P@@](=O)(OC)OC(C)=C1C(=O)OC` showed an inhibition [1] of 78.7%, an inhibition [2] of 39.8% and an XI50 [3] of 97.3 molar excess. It also gave an XI50 [4] of 25.9 molar excess, an inhibition [5] of 22.5% and an XI50 [6] of 11.3 molar excess.

With `CCCCCCCCCC[C@@H]1CC[P@@](=O)(OC)OC(C)=C1C(=O)OC` the inhibition [1] was 87.7%, the inhibition [2] was 82.8% and the XI50 [3] was 3.38 molar excess. The XI50 [4] was 1.64 molar excess, the inhibition [5] was 91.8% and the XI50 [6] was 7.61 molar excess.

For `CCCCCCCCCC[C@H]1CC[P@](=O)(OC)OC(C)=C1C(=O)OC`, the inhibition [1] was 96.6%, the inhibition [2] was 42.1% and the XI50 [3] was 2.52 molar excess. The XI50 [4] was 20 molar excess, the inhibition [5] was 93.2% and the XI50 [6] was 1.16 molar excess.
